For data set [1] the following is noted: 101 kPa, Liquid, Vibrating tube method.
Data set [2] in a line: refractive index (Na D-line) (dimensionless). The settings on record: 101.33 kPa, Liquid, Standard Abbe refractometry.
The nature of data set [3]: xn = mol fraction of the nth substance listed. The settings on record: 101 kPa, Liquid, Vibrating tube method, x2 = 0.
The nature of data set [4]: refractive index (Na D-line) (dimensionless); φn = volume fraction of the nth substance listed. The settings on record: 101 kPa, Liquid, Standard Abbe refractometry, φ2 = 0.

Structures are written as SMILES. Numbers after ± are expanded uncertainties.

For nine compounds, mass density and refractive index results are on record in the NIST ThermoML archive (doi:10.1016/j.jct.2012.08.010).

As to `Cc1ccccc1C` [1,2-dimethylbenzene], the mass density (commonly mass per unit of volume) in data set [1] (288.15 K) is 884.07 ± 0.12 kg/m3; in data set [1] (298.15 K), 875.67 ± 0.13 kg/m3; in data set [1] (308.15 K), 867.3 ± 0.1 kg/m3; in data set [1] (318.15 K) it was 858.81 ± 0.13 kg/m3; in data set [1] (328.15 K) it was 850.24 ± 0.13 kg/m3. Further, the refractive index – broadly, the speed of light in vacuum divided by its phase velocity in the sample – in data set [2] (288.15 K) was 1.50775 ± 0.00031; in data set [2] (298.15 K) it was 1.50257 ± 0.00031; in data set [2] (308.15 K), 1.49724 ± 0.00031; in data set [2] (318.15 K) it was 1.49201 ± 0.00031; in data set [2] (328.15 K), 1.48661 ± 0.00031.

Turning to `Cc1cccc(C)c1` [1,3-dimethylbenzene] + C=C[Si]1(C)O[Si](C)(C=C)O[Si](C)(C=C)O[Si](C)(C=C)O1, the mass density was determined as 868.39 ± 0.13 kg/m3 in data set [3] (288.15 K); 859.83 ± 0.13 kg/m3 in data set [3] (298.15 K); 851.25 ± 0.13 kg/m3 in data set [3] (308.15 K); 842.58 ± 0.13 kg/m3 in data set [3] (318.15 K); 833.85 ± 0.14 kg/m3 in data set [3] (328.15 K). Besides, the refractive index in data set [4] (288.15 K) was 1.49969 ± 0.00031; in data set [4] (298.15 K) it was 1.49444 ± 0.00031; in data set [4] (308.15 K) it was 1.48894 ± 0.00031; in data set [4] (318.15 K), 1.48355 ± 0.00031; in data set [4] (328.15 K), 1.4782 ± 0.0003.

In the case of `Cc1ccccc1C` [1,2-dimethylbenzene] + C=C[Si]1(C)O[Si](C)(C=C)O[Si](C)(C=C)O[Si](C)(C=C)O1, the mass density in data set [3] (288.15 K) is reported as 884.07 ± 0.12 kg/m3; in data set [3] (298.15 K) it was 875.67 ± 0.13 kg/m3; in data set [3] (308.15 K), 867.3 ± 0.1 kg/m3; in data set [3] (318.15 K), 858.81 ± 0.13 kg/m3; in data set [3] (328.15 K) it was 850.24 ± 0.13 kg/m3. Also, the refractive index came out at 1.50775 ± 0.00031 in data set [4] (288.15 K); 1.50257 ± 0.00031 in data set [4] (298.15 K); 1.49724 ± 0.00031 in data set [4] (308.15 K); 1.49201 ± 0.00031 in data set [4] (318.15 K); 1.48661 ± 0.00031 in data set [4] (328.15 K).

In the case of `CCc1ccccc1` [ethylbenzene] + C=C[Si]1(C)O[Si](C)(C=C)O[Si](C)(C=C)O[Si](C)(C=C)O1, the mass density in data set [3] (288.15 K) was 871.31 ± 0.13 kg/m3; in data set [3] (298.15 K), 862.55 ± 0.13 kg/m3; in data set [3] (308.15 K), 853.75 ± 0.13 kg/m3; in data set [3] (318.15 K), 844.87 ± 0.13 kg/m3; in data set [3] (328.15 K), 835.93 ± 0.13 kg/m3. Also, the refractive index in data set [4] (288.15 K) is given as 1.49834 ± 0.00031; in data set [4] (298.15 K) it was 1.49297 ± 0.00031; in data set [4] (308.15 K) it was 1.48747 ± 0.00031; in data set [4] (318.15 K), 1.48202 ± 0.00031; in data set [4] (328.15 K), 1.47649 ± 0.00031.

`Cc1ccc(C)cc1` [1,4-dimethylbenzene] + C=C[Si]1(C)O[Si](C)(C=C)O[Si](C)(C=C)O[Si](C)(C=C)O1: the mass density in data set [3] (288.15 K) is 865.3 ± 0.1 kg/m3; in data set [3] (298.15 K) it was 856.62 ± 0.13 kg/m3; in data set [3] (308.15 K) it was 847.97 ± 0.13 kg/m3; in data set [3] (318.15 K), 839.21 ± 0.13 kg/m3; in data set [3] (328.15 K) it was 830.39 ± 0.14 kg/m3. The refractive index was determined as 1.49836 ± 0.00031 in data set [4] (288.15 K); 1.49298 ± 0.00031 in data set [4] (298.15 K); 1.48743 ± 0.00031 in data set [4] (308.15 K); 1.48202 ± 0.00031 in data set [4] (318.15 K); 1.47654 ± 0.00031 in data set [4] (328.15 K).

With `Cc1ccc(C)cc1` [1,4-dimethylbenzene], the mass density in data set [1] (288.15 K) was 865.3 ± 0.1 kg/m3; in data set [1] (298.15 K), 856.62 ± 0.13 kg/m3; in data set [1] (308.15 K), 847.97 ± 0.13 kg/m3; in data set [1] (318.15 K), 839.21 ± 0.13 kg/m3; in data set [1] (328.15 K), 830.39 ± 0.14 kg/m3. In addition, the refractive index in data set [2] (288.15 K) came to 1.49836 ± 0.00031; in data set [2] (298.15 K), 1.49298 ± 0.00031; in data set [2] (308.15 K), 1.48743 ± 0.00031; in data set [2] (318.15 K) it was 1.48202 ± 0.00031; in data set [2] (328.15 K) it was 1.47654 ± 0.00031.

For the compound `CCc1ccccc1` [ethylbenzene], the mass density in data set [1] (288.15 K) is recorded as 871.31 ± 0.13 kg/m3; in data set [1] (298.15 K), 862.55 ± 0.13 kg/m3; in data set [1] (308.15 K), 853.75 ± 0.13 kg/m3; in data set [1] (318.15 K) it was 844.87 ± 0.13 kg/m3; in data set [1] (328.15 K), 835.93 ± 0.13 kg/m3. The refractive index in data set [2] (288.15 K) amounted to 1.49834 ± 0.00031; in data set [2] (298.15 K) it was 1.49297 ± 0.00031; in data set [2] (308.15 K), 1.48747 ± 0.00031; in data set [2] (318.15 K) it was 1.48202 ± 0.00031; in data set [2] (328.15 K), 1.47649 ± 0.00031.

Consider `C=C[Si]1(C)O[Si](C)(C=C)O[Si](C)(C=C)O[Si](C)(C=C)O1` (stereo not given) [2,4,6,8-tetramethyl-2,4,6,8-tetravinylcycloterasiloxane], for which the mass density in data set [1] (288.15 K) was determined as 992.74 ± 0.13 kg/m3; in data set [1] (298.15 K), 982.54 ± 0.13 kg/m3; in data set [1] (308.15 K), 972.34 ± 0.13 kg/m3; in data set [1] (318.15 K), 962.14 ± 0.13 kg/m3; in data set [1] (328.15 K), 951.94 ± 0.13 kg/m3. The refractive index in data set [2] (288.15 K) is given as 1.43674 ± 0.00033; in data set [2] (298.15 K), 1.43202 ± 0.00033; in data set [2] (308.15 K), 1.4273 ± 0.0003; in data set [2] (318.15 K), 1.42257 ± 0.00033; in data set [2] (328.15 K) it was 1.41785 ± 0.00033.

For `Cc1cccc(C)c1` [1,3-dimethylbenzene], the mass density was 868.39 ± 0.13 kg/m3 in data set [1] (288.15 K); 859.83 ± 0.13 kg/m3 in data set [1] (298.15 K); 851.25 ± 0.13 kg/m3 in data set [1] (308.15 K); 842.58 ± 0.13 kg/m3 in data set [1] (318.15 K); 833.85 ± 0.14 kg/m3 in data set [1] (328.15 K). For the same compound, the refractive index is reported as 1.49969 ± 0.00031 in data set [2] (288.15 K); 1.49444 ± 0.00031 in data set [2] (298.15 K); 1.48894 ± 0.00031 in data set [2] (308.15 K); 1.48355 ± 0.00031 in data set [2] (318.15 K); 1.4782 ± 0.0003 in data set [2] (328.15 K).
